# Measured values from patent US5187163A, “Anti-viral compounds, dosage forms and methods” (Baker Norton Pharmaceuticals, Inc., priority 1992, dated 1993).
# Counter-ions that a name gives are not always drawn. Like-named read-outs stand apart in the source and are kept apart here.
# How the values were obtained:
# Type in all cases: cell-based
# [1] = Cytotoxicity (cell viability, trypan blue exclusion) in uninfected MT-2 cells; conditions: human; day 14, uninfected MT-2 cells; mean of triplicate cultures from two sets of experiments; linear regression; read-out: ID50 (drug concentration required to reduce the number of uninfected MT2 cells by 50%)
# Method: (§1) Target MT-2 cells (an HTLV-I immortalized CD4+lymphoblastoid cell line) were propagated in growth medium (D-MEM supplemented with 15% heat-inactivated fetal bovine serum, 2mM glutamine, and 1% penicillin-streptomycin).
# (§2) MT-2 cells (2×10^5 cells per ml) were exposed to multiple drug concentrations (performed in triplicate). The medium was changed every 3-4 days, followed by the addition of fresh drug. Cell viability was determined by the trypan blue exclusion method and compared to controls without drug.
# (§3) The comparative HIV inhibitory effects of nucleosides and the novel nucleoside dimers are shown on Table 1. The 50% inhibitory dose (ID50) and 50% effective dose (ED50) of each compound were calculated using linear regression analysis from the results of a 14 day assay that monitored cell viability and the expression of HIV antigen by cellular fluorescence.
# (§4) The growth inhibitory effects of the compounds on MT-2 cells that were not exposed to the virus were compared. According to their ID50, the compounds could be classified into three major groups. […] When the cytotoxic effects of the compounds were tested against the human cell lines H9 and U937, similar toxicity profiles were seen.
# (§5) from two sets of experiments. Linear regression analysis was used to
# (§6) determine the ID50 and ED50. ID50, drug concentration
# (§7) required to reduce the number of uninfected MT2 cells by 50% on day 14.
# MT-2 cells = experiment: as above; conditions: uninfected MT-2 cells, in words
# Method: as §1, §2, §3, §4, §5, §6, §7
# HIV (TM) [2] = experiment: HIV infectivity assay in MT-2 cells (HIV antigen expression by immunofluorescence, 14 days); conditions: for EC50: read-out: ED50 (drug concentration achieving 50% inhibition of HIV expression assessed by immunofluorescence); for CTI, cytotherapeutic index (ID50/ED50): ID50/ED50, day 14, MT-2 cells; for anti-HIV activity profile according to ED50 / cytotherapeutic index, ranking: in words
# Method: (§8) An isolate of HIV (TM) was obtained from the culture supernatant of normal peripheral blood mononuclear cells infected with virus isolated from a patient with AIDS. Supernatant from H9 cells infected with HIV (TM) was aliquoted at peak reverse transcriptase activity and kept frozen at -85° C. until use.
# as §1
# (§9) Target MT-2 cells were exposed to DEAE-dextran (25 ug/ml, Sigma) for 20 minutes, washed and infected with HIV (TM) (MOI=0.001) at 37° C. for 1 hour. MT-2 cells (3×10^5 per ml) were placed in growth medium and transferred to a 24-well plastic tray followed by the addition of drug. The cells were carried at 37° C. in humidified air containing 5% CO2 for 14 days. Every 3-4 days, the medium was changed and fresh drug added. At each change of medium, cells and supernatants were assayed for measures of HIV expression. Uninfected and infected MT-2 cells without exposure to drug were used as controls. All cultures were performed in triplicate on two sets of experiments.
# *The results are expressed as the arithmetic mean of triplicate cultures
# as §5
# ED50, drug concentration achieving 50% inhibition of HIV expression
# assessed by immunofluorescence on day 14.
# HIV (TM) [3] = experiment: 4 day HIV-induced syncytium inhibition assay in MT-2 cells; conditions: for EC100: Human immunodeficiency virus 1, MT2, 96 h, read-out: concentration for complete/full protection of MT-2 cells from the formation of syncytia; for protective effect against the development of HIV-induced syncytia: among the dimers, 4 day assay, in words
# Method: as §8, with “use. HIV (TM) infectivity assays using sequential fivefold dilutions (performed in quadruplicate) determined the infectious virus titer (Reed-Muench method) to be 10^4.5 TC ID50 per ml.” for “use.”
# as §1, §9
# MT-2 cells were chosen because of their sensitivity to HIV infection with the formation of giant syncytia that are quantifiable. The cytopathic effect of HIV could be monitored as a function of the input virus inoculum. When MT-2 cells were monitored in a 14 day assay, a MOI of 0.001 gave rise to the formation of syncytia after 4 days (>400 per well) and peak reverse transcriptase levels by day 8.
# To investigate the inhibitory effects of the drugs on HIV-induced syncytia formation, the nucleoside dimers were compared to their monomers and their combinations at multiple concentrations in a 4 day syncytium inhibition assay.
# [4] = system: Reverse transcriptase (RT); experiment: Inhibition of reverse transcriptase activity in culture supernatant of HIV-infected H9 cells; conditions: for Reverse Transcriptase activity in culture supernatant: H9 cells, MOI = 1.0
# Method: *Target cells = H9 cells. MOI = 1.0. Media changes with the addition of
# fresh drug were performed at 3-4 day intervals. Results are expressed as
# CPMReverse Transcriptase activity per ml in culture supernatant. CPM
# >5,000 signifies abnormal elevations in Reverse Transcriptase activity.
# The results represent the mean of duplicate studies in one experiment.
# [5] = Human immunodeficiency virus 1, MT2, 336 h
# [6] = 1 Ug/ml, day 7, control (no drug) 11,000
# [7] = 1 Ug/ml, day 11, control (no drug) 38,000
# [8] = 1 Ug/ml, day 14, control (no drug) 34,000
# [9] = 5 Ug/ml, day 7, control (no drug) 11,000
# [10] = 5 Ug/ml, day 11, control (no drug) 38,000
# [11] = 5 Ug/ml, day 14, control (no drug) 34,000
Compound,CC50 at 336 h [1] [µM],toxicity group according to ID50 (MT-2 cells),EC50 (HIV (TM) [2]; [5]) [µM],"CTI, cytotherapeutic index (ID50/ED50) (HIV (TM) [2]; 20160 min)",anti-HIV activity profile according to ED50 (HIV (TM) [2]),EC100 (HIV (TM) [3]) [µM],protective effect against the development of HIV-induced syncytia (HIV (TM) [3]),"cytotherapeutic index, ranking (HIV (TM) [2])","Reverse Transcriptase activity in culture supernatant [4, 6]","Reverse Transcriptase activity in culture supernatant [4, 7]","Reverse Transcriptase activity in culture supernatant [4, 8]","Reverse Transcriptase activity in culture supernatant [4, 9]","Reverse Transcriptase activity in culture supernatant [4, 10]","Reverse Transcriptase activity in culture supernatant [4, 11]",further results
"Cc1cn(C2CC(N=[N+]=[N-])C(COP(=O)(O)OCC3OC(n4cc(C)c(=O)[nH]c4=O)CC3N=[N+]=[N-])O2)c(=O)[nH]c1=O (stereo not shown) [AZT-P-AZT, reference compound]",60,highest toxicity,1.5,40,most potent,,,,,,,,,,
"Cc1cn([C@H]2C[C@H](N=[N+]=[N-])[C@@H](COP(=O)(O)OC[C@@H]3CC[C@H](n4cnc5c(N)ncnc54)O3)O2)c(=O)[nH]c1=O [AZT-P-ddA, azido-beta-thymidine-2',3'-dideoxyadenosine phosphate ammonium salt]",200,moderate toxicity,0.8,250,most potent,0.5,strongest protective effect,highest,"1,500 CPM per ml","12,000 CPM per ml","26,500 CPM per ml",500 CPM per ml,500 CPM per ml,500 CPM per ml,activity in RT assay compared with AZT ([4]; in words): comparable to that of AZT
"O=c1[nH]cnc2c1ncn2[C@H]1CC[C@@H](CO)O1 [ddI, 2',3'-dideoxyinsine, reference compound]",450,least toxicity,,60,weaker activities,,,,,,,,,,"EC50 (HIV (TM) [2]; day 14, HIV-infected MT-2 cells, MOI 0.001, mean of triplicate cultures from two sets of experiments, linear regression, 20160 min): 7.5 µM"
Cc1cn([C@H]2C[C@H](N=[N+]=[N-])[C@@H](COP(=O)(OCCC#N)OC[C@@H]3CC[C@H](n4cnc5c(N)ncnc54)O3)O2)c(=O)[nH]c1=O (stereo partly shown) [AZT-P(CyE)-ddA],210,moderate toxicity,0.7,300,most potent,0.5,strongest protective effect,highest,"6,000 CPM per ml","43,000 CPM per ml","36,000 CPM per ml","1,000 CPM per ml","4,500 CPM per ml","12,000 CPM per ml",
"Nc1ncnc2c1ncn2[C@H]1CC[C@@H](CO)O1 [ddA, 2',3'-dideoxyadenosine, reference compound]",400,least toxicity,7,57,weaker activities,10,,,,,,,,,"Reverse Transcriptase activity in culture supernatant ([4]; 1 uM, day 7, control (no drug) 11,000): 5,500 CPM per ml; Reverse Transcriptase activity in culture supernatant ([4]; 1 uM, day 11, control (no drug) 38,000): 45,000 CPM per ml; Reverse Transcriptase activity in culture supernatant ([4]; 1 uM, day 14, control (no drug) 34,000): 39,500 CPM per ml; Reverse Transcriptase activity in culture supernatant ([4]; 10 uM, day 7, control (no drug) 11,000): 500 CPM per ml; Reverse Transcriptase activity in culture supernatant ([4]; 10 uM, day 11, control (no drug) 38,000): 3,000 CPM per ml; Reverse Transcriptase activity in culture supernatant ([4]; 10 uM, day 14, control (no drug) 34,000): 4,500 CPM per ml"
"Cc1cn([C@H]2C[C@H](N=[N+]=[N-])[C@@H](COP(=O)(O)OC[C@@H]3CC[C@H](n4cnc5c(=O)[nH]cnc54)O3)O2)c(=O)[nH]c1=O [AZT-P-ddI, azido-β-thymidine-2',3'-dideoxyinosine phosphate ammonium salt]",240,moderate toxicity,1,240,most potent,,,highest,"1,000 CPM per ml","3,000 CPM per ml","10,000 CPM per ml","1,000 CPM per ml","1,500 CPM per ml","25,000 CPM per ml",duration of inhibition of the enzyme (RT) ([4]; 1 ug/ml): at least 11 days
